Our source for the IC50 values is patent publication US10351552B2, “Bicyclic antiparasitic compounds” (MediSynergies, LLC, priority 2017, dated 2019).

For orientation: IC50 means the point on the concentration scale where inhibition reaches its midpoint. Higher therefore signals a need for much substance.

The subject of this assay is T. brucei brucei clone 427-221a (bloodstream forms). Kind of assay: T. brucei brucei growth inhibition assay. As to conditions: Trypanosoma brucei, 40 hours at 37° C., CellTiter-Glo ATP-bioluminescence. Type of assay: cell-based. The method, then: The growth inhibition assay for T. brucei brucei was conducted as described previously by Z. B. Mackey, et al (Kenny K. H. Ang, Joseline Ratnam, Jiri Gut, Jennifer Legac, Elizabeth Hansell, Zachary B. Mackey, Katarzyna M. Skrzypczynska, Anjan Debnath, Juan C. Engel, Philip J. Rosenthal, James H. McKerrow, Michelle R. Arkin, Adam R. Renslo (2011) “Mining a Cathepsin Inhibitor Library for New Antiparasitic Drug Leads”, PLoS Neglected Tropical Diseases, 5(5):e1023). Bloodstream forms of the monomorphic T. brucei brucei clone 427-221a were grown in complete HMI-9 medium containing 10% FBS, 10% Serum Plus medium (Sigma Inc., St. Louis, Mo., USA), 50 U/mL penicillin and […] (Invitrogen) at 37° C. under a humidified atmosphere and 5% CO2. Inhibitor stocks were prepared in 100% DMSO and screened at […] for percent inhibition values or serially diluted from […] in 10% DMSO for IC50 determinations. […] of diluted parasites ([…]) in sterile Greiner 96-well flat white opaque culture plates such that the final DMSO concentration was 0.5%. The 0% inhibition control wells contained 0.5% DMSO while 100% inhibition control wells contained 50 mM thimerosal (Sigma). After compound addition, plates were incubated for 40 hours at 37° C. At the end of the incubation period, […] of CellTiter-Glo™ reagent (Promega Inc., Madison, Wis., USA) was added to each well and plates were placed on an orbital shaker at room temperature for 2 min to induce lysis. After an additional 10 min of incubation without shaking to stabilize the signal, the ATP-bioluminescence of each well was determined using an Analyst HT plate reader (Molecular Devices, Sunnyvale, Calif., USA). Raw values were converted to log 10 and percentage inhibition calculated relative to the controls. IC50 curve fittings were performed with Prism 4 software as above. Pentamidine was used as a comparator in the assay.
On the technique in general: In ATP-based viability assays light output follows the ATP content of the culture.
`Cc1ccc2oc(-c3ccc4c(c3)COC4(CCCN(C)C)c3ccc(F)cc3)nc2c1` (stereo not shown) [Example 8, 3-[1-(4-fluorophenyl)-5-(5-methyl-1,3-benzoxazol-2-yl)-1,3-dihydro-2-benzofuran-1-yl]-N,N-dimethylpropan-1-amine] returned an IC50 of 110 nM.

`CN(C)CCCC1(c2ccc(F)cc2)OCc2cc(-c3cncc4ccccc34)ccc21` (stereo not shown) [Example 7, 3-[1-(4-fluorophenyl)]-[5-(isoquinolin-4-yl)-1,3-dihydro-2-benzofuran-1-yl]-N,N-dimethylpropan-1-amine] gave an IC50 of 1000 nM. Against the preceding compound, the IC50 is about 9.1-fold higher. Compound `CN(C)CCCC1(c2ccc(F)cc2)OCc2cc(-c3cccc4[nH]ccc34)ccc21` (stereo not shown) [Example 1, 3-[1-(4-fluorophenyl)-5-(1H-indol-4-yl)-1,3-dihydro-2-benzofuran-1-yl]-N,N-dimethylpropan-1-amine] returned an IC50 of 1500 nM. The same measure for `CN(C)CCCC1(c2ccc(F)cc2)OCc2cc(-c3ccc4scnc4c3)ccc21` (stereo not shown) [Example 3, 3-[1-(4-fluorophenyl)-5-(1,3-benzothiazol-5-yl)-1,3-dihydro-2-benzofuran-1-yl]-N,N-dimethylpropan-1-amine]: 1200 nM. `CN(C)CCCC1(c2ccc(F)cc2)OCc2cc(-c3cc4ccccc4s3)ccc21` (stereo not shown) [Example 4] yielded an IC50 of 510 nM. Against the preceding compound, the IC50 is about 2.4-fold lower.

Regarding `CN(C)CCCC1(c2ccc(F)cc2)OCc2cc(-c3cnc4ccccc4c3)ccc21` (stereo not shown) [Example 6, 3-[1-(4-fluorophenyl)]-[5-(quinolin-3-yl)-1,3-dihydro-2-benzofuran-1-yl]-N,N-dimethylpropan-1-amine], inhibition was half-maximal at 3000 nM (IC50).

In turn, `CN(C)CCCC1(c2ccc(F)cc2)OCc2cc(-c3ccc4ocnc4c3)ccc21` (stereo not shown) [Example 2, 3-[1-(4-flurophenyl)-5-(1,3-benzoxazol-5-yl)-1,3-dihydro-2-benzofuran-1-yl]-N,N-dimethylpropan-1-amine] yielded an IC50 of 410 nM.
